Data published in ChEMBL document CHEMBL3400105, “Discovery of novel pyrazolopyrimidinone analogs as potent inhibitors of phosphodiesterase type-5” (Bioorg Med Chem, 2015).
Converted amounts (≈) assume the structure as drawn.

What was measured:
[1] = target: T1, cGMP-specific 3',5'-cyclic phosphodiesterase (Homo sapiens, UniProt O76074)
[2] = Lipophilicity, log D of the compound; type: physicochemical; conditions: octanol/water
[3] = Passive permeability across basolateral to apical side in human Caco2 cells; type: ADME, cell-based; conditions: Caco-2, read-out: permeability
[4] = Fraction unbound in whole blood (unknown origin); type: ADME, tissue-based
[5] = Lipophilicity, log P of the compound; type: physicochemical; conditions: octanol/water
[6] = Metabolic stability in mouse liver microsomes assessed as metabolized drug; type: ADME; conditions: read-out: Drug metabolism
[7] = Dissociation constant, pKa of the compound; type: physicochemical
[8] = target: High affinity 3',5'-cyclic-AMP phosphodiesterase 7A (Homo sapiens, UniProt Q13946); assay: Inhibition of GST-tagged recombinant human PDE7A1
[9] = Passive permeability across apical to basolateral side in human Caco2 cells; type: ADME, cell-based
Oryctolagus cuniculus = assay: Induction of penile erection in conscious rabbit model assessed as area under curve of length of uncovered penile mucosa at 3 mg/kg, iv into ear vain
[10] = target: Dual specificity calcium/calmodulin-dependent 3',5'-cyclic nucleotide phosphodiesterase 1A (Homo sapiens, UniProt P54750); assay: Inhibition of PDE1A1 (unknown origin) using fluorescently labeled cAMP substrate by fluorescence polarization assay
[11] = Plasma protein binding (unknown origin); type: ADME, cell-free; conditions: read-out: PPB (converted)
[12] = Apparent oral clearance in Balbc mouse at 1 mg/kg, iv; type: ADME, organism-based; design: dose 1 mg/kg, route oral; conditions: in vivo
[13] = target: Dual 3',5'-cyclic-AMP and -GMP phosphodiesterase 11A (Homo sapiens, UniProt Q9HCR9); assay: Inhibition of GST-tagged recombinant human PDE11A4
[14] = Apparent oral volume of distribution in Swiss mouse at 10 mg/kg, po; type: ADME, organism-based; design: dose 10 mg/kg, route oral; conditions: in vivo
CYP3A4 = CYP3A4 (Homo sapiens, UniProt P08684); assay: Inhibition of CYP3A4 (unknown origin) at 10 uM; type: ADME
[15] = AUC (0 to infinity) in Swiss mouse at 10 mg/kg, po; type: ADME, organism-based; design: time infinity, dose 10 mg/kg, route oral; conditions: plasma
[16] = Apparent oral volume of distribution in Balbc mouse at 1 mg/kg, iv; type: ADME, organism-based; design: dose 1 mg/kg, route oral; conditions: in vivo
[17] = target: High affinity cAMP-specific and IBMX-insensitive 3',5'-cyclic phosphodiesterase 8A (Homo sapiens, UniProt O60658); assay: Inhibition of GST-tagged recombinant human PDE8A1
[18] = AUC (0 to time) in Balbc mouse at 1 mg/kg, iv; type: ADME, organism-based; design: dose 1 mg/kg, route intravenous; conditions: plasma
[19] = target: cGMP-dependent 3',5'-cyclic phosphodiesterase (Homo sapiens, UniProt O00408); assay: Inhibition of PDE2A1 (unknown origin) using fluorescently labeled cAMP substrate by fluorescence polarization assay
[20] = Half life in Swiss mouse at 10 mg/kg, po; type: ADME, organism-based; design: dose 10 mg/kg, route oral; conditions: in vivo
Plasma = assay: Initial plasma concentration in Swiss mouse at 10 mg/kg, po; type: ADME, organism-based; design: dose 10 mg/kg, route oral; conditions: in vivo
[21] = target: cGMP-inhibited 3',5'-cyclic phosphodiesterase 3A (Homo sapiens, UniProt Q14432); assay: Inhibition of PDE3A (unknown origin) using fluorescently labeled cAMP substrate by fluorescence polarization assay
[22] = AUC (0 to infinity) in Balbc mouse at 1 mg/kg, iv; type: ADME, organism-based; design: time infinity, dose 1 mg/kg, route intravenous; conditions: plasma
[23] = target: Cone cGMP-specific 3',5'-cyclic phosphodiesterase subunit alpha' (Homo sapiens, UniProt P51160); assay: Inhibition of PDE6C (unknown origin)
CYP2C9 = CYP2C9 (Homo sapiens, UniProt P11712); assay: Inhibition of CYP2C9 (unknown origin) at 10 uM; type: ADME
[24] = Tmax in Balbc mouse at 1 mg/kg, ip; type: ADME, organism-based; design: dose 1 mg/kg, route intraperitoneal; conditions: in vivo
[25] = AUC (0 to time) in Swiss mouse at 10 mg/kg, po; type: ADME, organism-based; design: dose 10 mg/kg, route oral; conditions: plasma
[26] = target: cAMP and cAMP-inhibited cGMP 3',5'-cyclic phosphodiesterase 10A (Homo sapiens, UniProt Q9Y233); assay: Inhibition of PDE10A1 (unknown origin) using fluorescently labeled cAMP substrate by fluorescence polarization assay
[27] = Solubility in PBS; type: physicochemical
[28] = Cmax in Balbc mouse at 1 mg/kg, iv; type: ADME, organism-based; design: dose 1 mg/kg, route intravenous; conditions: in vivo
[29] = Tmax in Swiss mouse at 10 mg/kg, po; type: ADME, organism-based; design: dose 10 mg/kg, route oral; conditions: in vivo
[30] = Solubility in water; type: physicochemical
[31] = Apparent oral clearance in Swiss mouse at 10 mg/kg, po; type: ADME, organism-based; design: dose 10 mg/kg, route oral; conditions: in vivo
[32] = AUC (0 to infinity) in Balbc mouse at 1 mg/kg, ip; type: ADME, organism-based; design: time infinity, dose 1 mg/kg, route intraperitoneal; conditions: plasma
[33] = Solubility in simulated gastric fluid; type: ADME, Stomach
[34] = AUC (0 to time) in Balbc mouse at 1 mg/kg, ip; type: ADME, organism-based; design: dose 1 mg/kg, route intraperitoneal; conditions: plasma
in vitro = conditions: human, Caco-2
[35] = target: T1, cGMP-specific 3',5'-cyclic phosphodiesterase; assay: Inhibition of PDE5A1 (unknown origin)
[36] = target: High affinity cGMP-specific 3',5'-cyclic phosphodiesterase 9A (Homo sapiens, UniProt O76083); assay: Inhibition of GST-tagged recombinant human PDE9A2
[37] = Cmax in Balbc mouse at 1 mg/kg, ip; type: ADME, organism-based; design: dose 1 mg/kg, route intraperitoneal; conditions: in vivo
[38] = target: 3',5'-cyclic-AMP phosphodiesterase 4A (Homo sapiens, UniProt P27815); assay: Inhibition of PDE4A1 (unknown origin) using fluorescently labeled cAMP substrate by fluorescence polarization assay
[39] = Solubility in simulated intestinal fluid; type: ADME
[40] = Cmax in Swiss mouse at 10 mg/kg, po; type: ADME, organism-based; design: dose 10 mg/kg, route oral; conditions: in vivo

Chain of High affinity 3',5'-cyclic-AMP phosphodiesterase 7A (Q13946 whole entry): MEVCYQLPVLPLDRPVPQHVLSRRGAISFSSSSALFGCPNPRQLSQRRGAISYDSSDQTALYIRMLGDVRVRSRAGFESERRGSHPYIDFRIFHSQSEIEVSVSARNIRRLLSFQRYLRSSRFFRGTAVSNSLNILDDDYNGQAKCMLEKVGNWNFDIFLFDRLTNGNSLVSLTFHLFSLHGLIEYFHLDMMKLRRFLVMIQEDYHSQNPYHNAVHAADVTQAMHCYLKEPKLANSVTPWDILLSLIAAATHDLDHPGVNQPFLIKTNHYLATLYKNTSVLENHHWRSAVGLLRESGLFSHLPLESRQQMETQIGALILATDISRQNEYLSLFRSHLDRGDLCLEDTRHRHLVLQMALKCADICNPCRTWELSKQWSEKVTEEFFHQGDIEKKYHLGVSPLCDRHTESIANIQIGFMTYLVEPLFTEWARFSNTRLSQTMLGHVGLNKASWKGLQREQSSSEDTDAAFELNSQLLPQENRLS
Chain of Dual specificity calcium/calmodulin-dependent 3',5'-cyclic nucleotide phosphodiesterase 1A (P54750 whole entry): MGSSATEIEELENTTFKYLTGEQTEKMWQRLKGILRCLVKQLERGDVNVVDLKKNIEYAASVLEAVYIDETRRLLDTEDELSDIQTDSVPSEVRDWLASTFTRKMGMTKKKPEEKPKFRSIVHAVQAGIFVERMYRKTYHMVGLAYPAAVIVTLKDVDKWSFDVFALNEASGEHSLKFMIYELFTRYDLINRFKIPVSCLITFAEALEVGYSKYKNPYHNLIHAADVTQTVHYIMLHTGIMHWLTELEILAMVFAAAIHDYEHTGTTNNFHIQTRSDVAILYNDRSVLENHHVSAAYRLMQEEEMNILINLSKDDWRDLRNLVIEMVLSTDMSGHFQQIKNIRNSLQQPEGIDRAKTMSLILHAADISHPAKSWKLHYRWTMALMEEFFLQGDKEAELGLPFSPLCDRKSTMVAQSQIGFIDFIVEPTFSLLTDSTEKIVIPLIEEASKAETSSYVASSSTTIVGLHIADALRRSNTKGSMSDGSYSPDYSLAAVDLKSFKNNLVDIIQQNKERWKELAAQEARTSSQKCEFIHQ
Chain of CYP3A4 (P08684 whole entry): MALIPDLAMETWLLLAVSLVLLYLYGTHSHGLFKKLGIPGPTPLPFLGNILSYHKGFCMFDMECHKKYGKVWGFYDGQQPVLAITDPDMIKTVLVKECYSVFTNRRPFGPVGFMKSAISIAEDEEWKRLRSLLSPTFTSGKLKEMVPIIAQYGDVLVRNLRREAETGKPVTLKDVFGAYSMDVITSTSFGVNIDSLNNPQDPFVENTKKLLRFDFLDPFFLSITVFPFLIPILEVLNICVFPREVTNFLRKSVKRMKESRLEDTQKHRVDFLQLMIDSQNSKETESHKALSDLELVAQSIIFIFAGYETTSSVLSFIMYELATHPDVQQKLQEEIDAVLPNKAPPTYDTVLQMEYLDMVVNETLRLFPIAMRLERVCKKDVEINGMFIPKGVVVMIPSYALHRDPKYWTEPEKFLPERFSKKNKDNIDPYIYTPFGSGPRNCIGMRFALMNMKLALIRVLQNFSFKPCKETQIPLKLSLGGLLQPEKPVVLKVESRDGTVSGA
Chain of 3',5'-cyclic-AMP phosphodiesterase 4A (P27815 whole entry): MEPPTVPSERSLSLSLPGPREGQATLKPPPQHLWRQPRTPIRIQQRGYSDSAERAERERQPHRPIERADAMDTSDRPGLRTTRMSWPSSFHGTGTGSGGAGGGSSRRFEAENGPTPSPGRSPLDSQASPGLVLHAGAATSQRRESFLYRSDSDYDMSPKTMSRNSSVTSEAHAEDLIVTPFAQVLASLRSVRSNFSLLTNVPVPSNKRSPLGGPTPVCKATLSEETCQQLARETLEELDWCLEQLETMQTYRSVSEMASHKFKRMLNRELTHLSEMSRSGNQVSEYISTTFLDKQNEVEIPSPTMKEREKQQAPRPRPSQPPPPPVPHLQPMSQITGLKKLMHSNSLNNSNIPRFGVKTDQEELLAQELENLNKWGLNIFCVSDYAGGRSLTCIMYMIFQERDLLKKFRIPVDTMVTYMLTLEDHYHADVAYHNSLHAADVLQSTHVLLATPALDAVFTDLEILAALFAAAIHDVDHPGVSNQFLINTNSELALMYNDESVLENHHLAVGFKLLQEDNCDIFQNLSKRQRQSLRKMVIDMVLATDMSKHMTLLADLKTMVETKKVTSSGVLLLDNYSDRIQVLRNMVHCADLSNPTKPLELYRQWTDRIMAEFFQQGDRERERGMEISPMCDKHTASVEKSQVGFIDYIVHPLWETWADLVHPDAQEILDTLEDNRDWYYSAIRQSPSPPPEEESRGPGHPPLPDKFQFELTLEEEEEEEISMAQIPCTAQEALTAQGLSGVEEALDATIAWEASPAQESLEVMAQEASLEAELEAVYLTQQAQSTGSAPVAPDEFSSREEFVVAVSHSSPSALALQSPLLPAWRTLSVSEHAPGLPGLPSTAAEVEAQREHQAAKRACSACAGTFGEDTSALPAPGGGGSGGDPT
Chain of High affinity cAMP-specific and IBMX-insensitive 3',5'-cyclic phosphodiesterase 8A (O60658 whole entry): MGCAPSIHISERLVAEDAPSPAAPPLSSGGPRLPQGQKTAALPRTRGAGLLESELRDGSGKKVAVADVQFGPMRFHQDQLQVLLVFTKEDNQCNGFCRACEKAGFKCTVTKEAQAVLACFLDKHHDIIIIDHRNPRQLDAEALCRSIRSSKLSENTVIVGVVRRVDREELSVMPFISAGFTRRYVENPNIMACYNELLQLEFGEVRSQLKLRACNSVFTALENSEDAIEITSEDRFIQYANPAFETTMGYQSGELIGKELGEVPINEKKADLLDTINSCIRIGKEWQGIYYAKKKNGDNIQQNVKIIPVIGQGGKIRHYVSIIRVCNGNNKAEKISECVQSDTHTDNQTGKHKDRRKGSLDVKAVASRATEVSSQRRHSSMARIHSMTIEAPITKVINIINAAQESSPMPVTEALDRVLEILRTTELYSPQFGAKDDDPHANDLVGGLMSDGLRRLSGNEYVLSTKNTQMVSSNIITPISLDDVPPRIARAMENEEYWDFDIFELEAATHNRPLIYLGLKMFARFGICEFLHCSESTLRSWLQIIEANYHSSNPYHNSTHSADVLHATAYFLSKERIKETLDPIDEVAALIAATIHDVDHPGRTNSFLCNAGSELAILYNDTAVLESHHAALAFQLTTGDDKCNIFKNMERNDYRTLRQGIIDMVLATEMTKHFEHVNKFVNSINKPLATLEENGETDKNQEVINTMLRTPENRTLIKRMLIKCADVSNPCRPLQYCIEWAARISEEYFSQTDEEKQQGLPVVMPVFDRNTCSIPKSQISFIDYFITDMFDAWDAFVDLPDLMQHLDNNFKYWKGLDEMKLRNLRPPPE
Chain of cAMP and cAMP-inhibited cGMP 3',5'-cyclic phosphodiesterase 10A (Q9Y233 whole entry): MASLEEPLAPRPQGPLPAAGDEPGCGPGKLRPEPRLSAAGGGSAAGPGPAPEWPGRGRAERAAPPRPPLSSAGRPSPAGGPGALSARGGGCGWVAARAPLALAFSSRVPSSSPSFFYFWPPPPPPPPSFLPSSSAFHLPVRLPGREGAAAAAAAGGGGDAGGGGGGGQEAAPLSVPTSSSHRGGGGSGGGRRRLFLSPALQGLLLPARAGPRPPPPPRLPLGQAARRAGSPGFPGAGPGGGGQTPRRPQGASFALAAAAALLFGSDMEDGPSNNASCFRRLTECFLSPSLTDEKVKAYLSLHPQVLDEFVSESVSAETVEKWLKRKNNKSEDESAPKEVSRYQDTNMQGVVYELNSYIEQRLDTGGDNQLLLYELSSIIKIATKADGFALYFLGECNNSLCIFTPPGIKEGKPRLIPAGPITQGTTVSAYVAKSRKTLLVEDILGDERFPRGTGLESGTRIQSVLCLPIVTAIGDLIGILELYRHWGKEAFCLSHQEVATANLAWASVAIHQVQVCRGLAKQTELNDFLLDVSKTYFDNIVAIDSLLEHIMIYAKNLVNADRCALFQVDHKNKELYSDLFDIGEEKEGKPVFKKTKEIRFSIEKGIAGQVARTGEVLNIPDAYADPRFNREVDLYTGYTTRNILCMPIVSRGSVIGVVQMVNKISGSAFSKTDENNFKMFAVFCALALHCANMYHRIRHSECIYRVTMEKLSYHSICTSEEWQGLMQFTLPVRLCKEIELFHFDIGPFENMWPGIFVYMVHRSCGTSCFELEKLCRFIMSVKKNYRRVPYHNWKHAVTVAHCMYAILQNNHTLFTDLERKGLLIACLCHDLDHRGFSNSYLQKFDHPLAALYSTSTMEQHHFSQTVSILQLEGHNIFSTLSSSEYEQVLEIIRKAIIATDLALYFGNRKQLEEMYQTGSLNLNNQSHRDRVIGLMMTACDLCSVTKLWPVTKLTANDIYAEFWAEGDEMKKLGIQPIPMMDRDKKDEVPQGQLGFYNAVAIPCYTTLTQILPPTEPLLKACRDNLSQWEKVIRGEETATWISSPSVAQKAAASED
Chain of High affinity cGMP-specific 3',5'-cyclic phosphodiesterase 9A (O76083 whole entry): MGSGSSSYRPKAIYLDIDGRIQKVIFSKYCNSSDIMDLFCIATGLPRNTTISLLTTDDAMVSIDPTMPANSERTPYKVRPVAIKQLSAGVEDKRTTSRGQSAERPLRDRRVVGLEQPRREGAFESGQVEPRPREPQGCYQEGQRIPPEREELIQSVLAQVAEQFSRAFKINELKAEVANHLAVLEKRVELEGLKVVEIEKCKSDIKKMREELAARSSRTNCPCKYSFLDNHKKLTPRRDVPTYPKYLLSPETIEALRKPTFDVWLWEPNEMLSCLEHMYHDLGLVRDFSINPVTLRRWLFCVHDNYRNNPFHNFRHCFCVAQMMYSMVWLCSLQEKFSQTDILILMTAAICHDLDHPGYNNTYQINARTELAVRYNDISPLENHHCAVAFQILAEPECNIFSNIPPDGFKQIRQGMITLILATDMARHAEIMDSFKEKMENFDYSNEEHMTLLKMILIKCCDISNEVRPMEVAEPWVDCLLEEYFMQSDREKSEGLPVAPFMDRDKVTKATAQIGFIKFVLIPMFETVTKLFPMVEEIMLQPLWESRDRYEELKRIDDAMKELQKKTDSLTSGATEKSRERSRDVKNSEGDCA

CCCc1nn(C)c2c(=O)[nH]c(-c3cc(S(=O)(=O)NCCN4CCCCC4)ccc3OCC)nc12
IC50 [1]: 0.016 µM

CCCc1nn(C)c2c(=O)[nH]c(-c3cc(S(=O)(=O)NCc4ccc(OC)c(F)c4)ccc3OCC)nc12
IC50 [1]: 0.0033 µM

CCCc1nn(C)c2c(=O)[nH]c(-c3cc(S(=O)(=O)NCCN4CCOCC4)ccc3OCC)nc12
IC50 [1]: 0.0016 µM

CCCc1nn(C)c2c(=O)[nH]c(-c3cc(S(=O)(=O)NCCc4c[nH]c5ccccc45)ccc3OCC)nc12
IC50 [1]: 0.013 µM

CCCc1nn(C)c2c(=O)[nH]c(-c3cc(S(=O)(=O)N4CCN(C)CC4)ccc3OCC)nc12
logD [2]: 2.69 | Papp B→A [3]: 45.5 ×10⁻⁶ cm/s | fraction unbound [4]: 0.066 | logP [5]: 2.58 | metabolised [6]: 90% | pKa [7]: 4.86 | IC50 [8]: 22 µM | permeability ([9]; Caco-2): 37.9 ×10⁻⁶ cm/s | AUC (Oryctolagus cuniculus): 305 | IC50 [10]: 0.6 µM | fraction unbound [11]: 0.04

CCCc1nn(C)c2c(=O)[nH]c(-c3cc(S(=O)(=O)NCCCN4CCOCC4)ccc3OCC)nc12
IC50 [1]: 0.0026 µM

CCCc1nn(C)c2c(=O)[nH]c(-c3cc(S(=O)(=O)NCCCCO)ccc3OCC)nc12
IC50 [1]: 0.0019 µM

CCCc1nn(C)c2c(=O)[nH]c(-c3cc(S(=O)(=O)NCCN(CC)CC)ccc3OCC)nc12
IC50 [1]: 0.032 µM

CCCc1nn(C)c2c(=O)[nH]c(-c3cc(S(=O)(=O)NCCCCCCO)ccc3OCC)nc12
CL/F [12]: 204 mL/min/kg | IC50 [13]: 1.4 µM | Vd/F [14]: 76.8 L/kg | logD [2]: 2.73 | inhibition at 10 µM (CYP3A4): 50% | AUC(0-inf) [15]: 156 ng·h/mL | Vd/F [16]: 1.65 L/kg | IC50 [17]: > 10 µM | Papp B→A [3]: 54.4 ×10⁻⁶ cm/s | AUC [18]: 80 ng·h/mL | IC50 [19]: 0.56 µM | fraction unbound [4]: 0.023 | half-life [20]: 48 min | C0 (Plasma): 556 ng/mL | IC50 [21]: > 10 µM | AUC(0-inf) [22]: 81.8 ng·h/mL | IC50 [23]: 0.0052 µM | IC50 [1]: 0.0015 µM | logP [5]: 2.73 | inhibition at 10 µM (CYP2C9): 56% | Tmax [24]: 30 min | AUC [25]: 134 ng·h/mL | IC50 [26]: 2 µM | solubility [27]: 20 µM (≈ 9.83 µg/mL) | metabolised [6]: > 95% | Cmax [28]: 221 ng/mL | pKa [7]: 5.22 | Tmax [29]: 4.98 min | solubility [30]: 20 µM (≈ 9.83 µg/mL) | CL/F [31]: 1070 mL/min/kg | AUC(0-inf) [32]: 71 ng·h/mL | solubility [33]: 80 µM (≈ 39.3 µg/mL) | IC50 ([8]; read-out: IC50): > 10 µM | AUC [34]: 69.4 ng·h/mL | efflux ratio (in vitro): 6 | Papp A→B ([9]; Caco-2, read-out: permeability): 9.1 ×10⁻⁶ cm/s | IC50 [35]: 0.0015 µM | AUC (Oryctolagus cuniculus): 432 | IC50 [10]: 0.062 µM | IC50 [36]: 3.8 µM | Cmax [37]: 105 ng/mL | fraction unbound [11]: 0.023 | IC50 [38]: 3.7 µM | solubility [39]: 10 µM (≈ 4.92 µg/mL) | Cmax [40]: 380 ng/mL

CCCCCCCNS(=O)(=O)c1ccc(OCC)c(-c2nc3c(CCC)nn(C)c3c(=O)[nH]2)c1
IC50 [1]: 0.0039 µM

CCCc1nn(C)c2c(=O)[nH]c(-c3cc(S(=O)(=O)NCCCCCO)ccc3OCC)nc12
IC50 [1]: 0.0017 µM

CCCc1nn(C)c2c(=O)[nH]c(-c3cc(S(=O)(=O)NCCCO)ccc3OCC)nc12
IC50 [1]: 0.0034 µM

CCCCCCNS(=O)(=O)c1ccc(OCC)c(-c2nc3c(CCC)nn(C)c3c(=O)[nH]2)c1
IC50 [1]: 0.012 µM

CCCc1nn(C)c2c(=O)[nH]c(-c3cc(S(=O)(=O)NCCCN(C)C)ccc3OCC)nc12
IC50 [1]: 0.014 µM
